Test results taken from patent US12383535B2, “Hydrogen peroxide-responsive KEAP1-NRF2 ppi inhibitor prodrug, and preparation method therefor” (CHINA PHARMACEUTICAL UNIVERSITY, priority 2019, dated 2025).

Legend:
[1] = Stability in artificial gastric and intestinal fluids (SGF, SIF); format: physicochemical; conditions: after 8 h
Description: (4) Stability in artificial gastric and intestinal fluids. Artificial gastric and intestinal fluids were purchased from commercial suppliers. Samples of prodrug (20 μM) were incubated in triplicate with artificial gastric or intestinal fluids at 37° C. for different periods of time. The enzyme protein was precipitated by adding methanol, and the samples were vortexed and then centrifuged at 5000 rpm for 5 min. The supernatants of the samples were analyzed by HPLC and the peak areas were recorded. All chromatographic conditions were as described above.

[2] = system: Nrf2-ARE in RAW264.7 cells; experiment: ARE inductivity under LPS stimulation; format: cell-based, mouse
[3] = Aqueous solubility (pSOL); format: physicochemical
Description: Through Avdeef-Bucher potentiometric titration, pKa and partition coefficients (log D, pH 7.4) were determined on a Gemini Profiler instrument (pION) according to the method of Avdeef and Tsinman. pH measurements were used to determine the intrinsic solubility.
Potential solubility data were obtained with a pSOL model 3 instrument (pION INC, Cambridge, Massachusetts, USA). Cell membrane permeability was determined on a PAMPA Explorer instrument (pION).

RAW264.7 cells = experiment: Antioxidant capacity assays (SOD, GSH-Px, GSH/GSSG, MPO); format: cell-based, mouse
Source text: Subsequently, to investigate the effect of pro2 on antioxidant capacity in inflammatory conditions, the activities of superoxide dismutase (SOD) and glutathione peroxidase (GPx) were examined. […] In addition, the GSH/GSSG ratio and myeloperoxidase (MPO) activity were also examined, which are two important markers indicating oxidative stress.

[4] = system: IL-1β and IL-6 protein in RAW264.7 cells; experiment: Western blot of IL-1β and IL-6 protein levels; format: cell-based, mouse; conditions: same concentration
Description: Anti-Nrf2 (ab62352) and anti-IL-1β (ab45692) antibodies were purchased from Abcam Technology (England). Anti-HO-1 (SC-136960) and anti-NQO1 (SC-271116) antibodies were purchased from Santa Cruz Biotechnology (California, USA). Anti-β-Actin (60008-1-Ig) and anti-GCLM (14241-1-AP) antibodies were purchased from Proteintech Group (USA). Cell sampling and western blot were performed as previously reported (M.-C. Lu, J.-A. Ji, Y.-L. Jiang, Z.-Y. Chen, Z.-W. Yuan, Q.-D. You, Z.-Y. Jiang, An inhibitor of the Keap1-Nrf2 protein-protein interaction protects NCM460 colonic cells and alleviates experimental colitis, Sci. Rep., 6 (2016) 26585).

[5] = system: Nrf2/ARE luciferase reporter in HepG2-ARE-C8 cells; experiment: ARE-luciferase activity assay; format: cell-based; conditions: no LPS (physiological conditions)
Description: HepG2-ARE-C8 cells were plated in a 96-well plate at a density of 4×10^4 cells/well and incubated overnight. The cells were then incubated with different concentrations of the test compound, with DMSO as a negative control and a luciferase cell lysis agent as a blank control. After 12 h of treatment, the medium was removed and 100 μL of pre-cooled PBS was added to each well to wash the cells. PBS was then removed and 30 μL of the luciferase cell lysis agent was added. After 15 min of lysis on ice, the cells were harvested and centrifuged, and 20 μL of the supernatant was taken for luciferase activity assay according to the protocol provided by the manufacturer (Promega, Madison, WI). The luciferase activity was measured by Luminoskan Ascent (Thermo Scientific, USA). The assay was performed in triplicate and the inductivity fold was calculated by comparing with the control.

Stability in plasma = format: in vitro ADME
Description: (2) Stability in plasma. Samples (20 μM) of the prodrug pro2 were co-incubated in triplicate with mouse plasma at 37° C. at different time periods. Methanol was added to precipitate the proteins, and the samples were vortexed and then centrifuged at 12,000 rpm for 5 min. The supernatants were analyzed by HPLC and the peak areas were recorded.

C57BL/6 mice = experiment: LPS-induced mouse acute inflammation model; format: in vivo; conditions: LPS 300 μg/kg mice
Description: Female C57BL/6 mice (6-8 weeks old, 18-20 g in weight) were acclimatized with drinking water for 2 days, and were randomized to eight groups: (A) control group (n=3); (B) LPS (Sigma-Aldrich, St. Louis, No. L4130) model group (300 μg/kg/day, n=8); (C) LPS (300 μg/kg/day)+pro2 low-dose (10 mg/kg/day) group (n=8); (D) LPS (300 μg/kg/day)+pro2 high-dose (40 mg/kg/day) group (n=8); (E) LPS (300 μg/kg/day)+active parent compound 2 high-dose (40 mg/kg/day) group (n=8); (F) LPS (300 μg/kg/day)+dexamethasone low-dose (10 mg/kg/day) group (n=8); (G) pro2 high-dose (40 mg/kg/day) group (n=3); and (H) active parent compound 2 high-dose (40 mg/kg/day) group (n=3). Animals of groups A, G and H were given IP injections of 500 μL of normal saline each time (on days −3, −2 and −1). All LPS-stimulated mice were IP-injected with 500 μL of LPS (on days −3, −2 and −1), and 4 h after the injection the mice were given corresponding compound treatment (on days −3, −2 and −1). Animals were sacrificed (day 0) 24 h after the last dose of the compound to collect the serum, and the levels of cytokine IL-1β, IL-6, TNF-α and IFN-γ in the serum were determined by ELISA.

[6] = pH stability in PBS buffers; format: physicochemical; conditions: PBS solutions, pH 4-10
Description: (1) pH stability. PBS buffers with different pH values (pH 4-10) were prepared from a 0.1 M HCl solution and a 0.1 M NaOH solution. The prodrug pro2 (20 μM) was incubated in triplicate together with the PBS buffers of different pH at 37° C. After 24 h of incubation, the solutions were filtered and injected for direct sample analysis by HPLC, and the peak areas were recorded to calculate the percentage of compound.

remaining in simulated gastric fluid (SGF) ([1]; SGF): > 50% | remaining in simulated intestinal fluid (SIF) ([1]; SIF): > 50% | EC50 ([2]; Mus musculus, RAW264.7, under LPS stimulation, read-out: EC50 of ARE inductivity): 320 nM | Aqueous solubility at pH 7.4 [3]: 879.6 μg/mL | stability in rat plasma (Stability in plasma): very stable | hydrolytic stability in PBS [6]: hydrolytically stable
SMILES: COc1ccc(S(=O)(=O)Nc2ccc(N(CC(=O)N3CCSC3=O)S(=O)(=O)c3ccc(OC)cc3)c3ccccc23)cc1 [pro2]
inductivity of Nrf2-ARE at different concentrations of LPS ([2]; RAW264.7 cells stimulated with LPS prior to administration, compound 200 nM): LPS concentration-dependent increase | SOD and GSH-Px activity (RAW264.7 cells; LPS 20 ng/mL): restored the SOD and GSH-Px activity significantly | GSH/GSSG ratio and MPO activity (RAW264.7 cells; LPS exposure): return markers to near normal | LPS-induced IL-1β and IL-6 protein expression [4]: almost completely inhibited | ARE inductivity [5]: remained almost inactive even at the highest concentration | anti-inflammatory effect (serum IL-1β, IL-6, TNF-α, IFN-γ) (C57BL/6 mice; compound 10 mg/kg): comparable therapeutic effect to dexamethasone | anti-inflammatory effect (serum IL-1β, IL-6, TNF-α, IFN-γ) (C57BL/6 mice; compound high dose 40 mg/kg, oral): stronger effect
